Assay results published in US9376469B2, “Proteolytically resistant hydrogen bond surrogate helices” (New York University, priority 2011, dated 2016).
Square brackets hold non-standard residues; d marks the D form. Peptide text beside a SMILES is read from it. * marks the point of attachment. X1 = NC(=O)CC[C@@H]1NC(=O)CCC=CCN(CCC(=O)*)C(=O)[C@H](CCC(=O)O)NC1=O; β3hL = CC(C)C[C@H](N)CC(=O)O; β3hA = C[C@H](N)CC(=O)O

How the values were obtained:
trypsin = experiment: Trypsin digestion assay; format: in vitro ADME; conditions: 1 ng/μL trypsin, 4° C.
Protocol: A solution containing 500 μM of tryptophan, 1 ng/μL of trypsin, and 500 μM of peptide in PBS was incubated at 4° C. At the indicated time intervals, 100 μL of this solution was quenched with 100 μL of 2% aqueous TFA, and then injected into reversed-phase HPLC to analyze the change in the area of the peptide peak compared to the area of an internal control (tryptophan).
Trypsin was chosen as the model proteolytic enzyme because the p53 activation domain contains a lysine group near the C-terminus, providing a cleavage site for this enzyme. […] The rate of peptide digestion was measured using an LCMS assay with tryptophan as an internal control.

[1] = target: T1, His6-tagged Mdm2 (25-117) (Homo sapiens, UniProt Q00987); experiment: Fluorescence polarization-based competitive binding assay with Flu-p53; conditions: for Binding to Mdm2, result in words: negative control peptides; for Kd: read-out: KD (binding constant for His6-Mdm2)
T1 construct: made in house; host or cells: E. coli BL21 DE3 pLySS, pET-14B vector

serum proteases = experiment: Serum stability assay; format: in vitro ADME; conditions: 25% human serum in RPMI, 37° C., after 24 hours, LCMS
Protocol: Peptides and 50% human serum (Sigma, St Louis, Mo., USA; product number S7023) in RPMI were temperature-equilibrated to 37° C. for 15 minutes prior to the experiments. […] After 0, 2, 5, 10, and 24 hours, three samples of each peptide (50 μl) were taken, and were precipitated by the addition of 100 μl of 6% aqueous trichloroacetic acid. The samples were cooled to 4° C. for 20 minutes and centrifuged (14000 rpm for 5 minutes). The supernatants were immediately frozen on dry ice and 100 μl of each were analyzed on an Agilent LCMS using 0.1% formic acid in water (eluent A) and 0.1% formic acid in acetonitrile (eluent B). The level of intact peptide was determined by comparing the LC % area of the peptide peak at different time points to the % area of the O-hour peak.
Human serum contains a myriad of proteases and provides a gauge for the stability of compounds under physiological conditions.

HeLa cells = experiment: Cellular uptake assay, confocal microscopy of live cells; format: cell-based; conditions: 15 μM fluorescein-tagged peptide, 2 hours, 37° C.
Protocol: HeLa cells were cultured to sub-confluence in DMEM (Invitrogen) supplemented with 10% (v/v) fetal bovine serum (FBS) at 37° C. in a humidified incubator containing 5% CO2. Cells (˜1×10^4 cells/ml) in DMEM supplemented with 10% FBS were plated onto a 24-well culture plate containing microscope cover slides. After overnight incubation, cells were washed three times with 1 ml HBSS (Invitrogen) and supplemented with 15 μM fluorescein-tagged peptides in 1 mM PBS (pH 7.4) to a total volume of 500 μl. Peptide treated cells were incubated for another 2 hours at 37° C., washed five times with 500 μl HBSS, and imaged directly on a Leica TSC SP 2 laser scanning confocal microscope. Twenty serial 1 μm Z-section images through the middle of the cells were collected and analyzed.
It is likely that cellular uptake of HBS helices will have sequence dependence; however, it is noteworthy that peptides with an overall negative charge are internalized (Patgiri et al., Nat. Chem. Biol. 7:585 (2011), which is hereby incorporated by reference in its entirety), as positive charge is often associated with enhanced cellular uptake of peptides (Henchey et al., J. Am. Chem. Soc'y 132:941 (2010); Bernal et al., J. Am. Chem. Soc'y 129:2456 (2007); Wender et al., Proc. Nat'l Acad. Sci. USA 97:13003 (2000), each of which is hereby incorporated by reference in its entirety).

Row | Compound | Binding to Mdm2, result in words [1] | Kd [1] [µM] | also measured
1 | CC(=O)N[C@@H](CCC(N)=O)C(=O)N[C@@H](CCC(=O)O)CC(=O)NCC(=O)N[C@@H](Cc1ccccc1)C(=O)N[C@@H](CO)C(=O)N[C@@H](CC(=O)O)CC(=O)N[C@@H](CC(C)C)C(=O)N[C@@H](Cc1c[nH]c2ccccc12)C(=O)N[C@@H](CCCCN)C(=O)N[C@H](CC(=O)N[C@@H](CC(C)C)C(=O)N[C@@H](CO)C(N)=O)CC(C)C [Peptide 3, Ac-QeGFSdLWKILS-NH2 (SEQ ID NO: 7)] | – | – | Stability toward trypsin degradation, in words (trypsin; PBS): stable toward degradation
2 | CC(C)C[C@@H](CC(=O)N[C@@H](C)C(=O)N[C@@H](CO)C(N)=O)NC(=O)[C@H](CCCCN)NC(=O)[C@H](Cc1c[nH]c2ccccc12)NC(=O)[C@H](CC(C)C)NC(=O)C[C@H](CC(=O)O)NC(=O)[C@H](CO)NC(=O)[C@H](C)NC(=O)CN1CC=CCCC(=O)N[C@@H](CCC(N)=O)C(=O)N[C@@H](CCC(=O)O)CC1=O [Peptide 5, XQeG*ASdLWKIAS-NH2 (SEQ ID NO: 9)] | does not bind to Mdm2 with measurable affinity | > 1000 | –
3 | CC(=O)N[C@@H](CCC(N)=O)C(=O)N[C@H]1CCC[C@@H]1C(=O)NCC(=O)N[C@@H](Cc1ccccc1)C(=O)N[C@@H](CO)C(=O)N[C@H]1CCC[C@@H]1C(=O)N[C@@H](CC(C)C)C(=O)N[C@@H](Cc1c[nH]c2ccccc12)C(=O)N[C@@H](CCCCN)C(=O)N[C@H]1CCC[C@@H]1C(=O)N[C@@H](CC(C)C)C(=O)N[C@@H](CO)C(N)=O [Peptide 4, Ac-Q(ACPC)GFS(ACPC)LWK(ACPC)LS-NH2 (SEQ ID NO: 8)] | – | 0.43 ± 0.086 | Affinity for Mdm2 as compared to peptide 1 ([1]; relative to peptide 1): roughly five-fold lower affinity
4 | CC(C)C[C@@H](CC(=O)N[C@@H](CC(C)C)C(=O)N[C@@H](CO)C(N)=O)NC(=O)[C@H](CCCCN)NC(=O)[C@H](Cc1c[nH]c2ccccc12)NC(=O)[C@H](CC(C)C)NC(=O)C[C@H](CC(=O)O)NC(=O)[C@H](CO)NC(=O)[C@H](Cc1ccccc1)NC(=O)CN1CC=CCCC(=O)N[C@@H](CCC(N)=O)C(=O)N[C@@H](CCC(=O)O)CC1=O [Peptide 1, XQeG*FSdLWKILS-NH2 (SEQ ID NO: 5)] | – | – | metabolised at 24 h, 500 μM (trypsin; trypsin (isolated protease) in PBS, after 24 hours, 500 μM peptide, read-out: Peptide cleaved by trypsin): ~20%; Stability in human serum, in words (serum proteases): remained unperturbed
5 | XQeG*FSdLWKILSC^Flu-NH2 (SEQ ID NO: 11) [Flu-1] | – | – | Cellular uptake (intracellular fluorescence) (HeLa cells): intense intracellular fluorescence
6 | CC(C)C[C@@H](CC(=O)N[C@@H](Cc1c[nH]c2ccccc12)C(=O)N[C@@H](CCCCN)C(=O)N[C@@H](CC(C)C)C(=O)N[C@@H](C)CC(=O)N[C@@H](CO)C(N)=O)NC(=O)[C@H](CC(=O)O)NC(=O)[C@H](CO)NC(=O)[C@H](C)NC(=O)CCN1CC=CCCC(=O)N[C@@H](CCC(N)=O)C(=O)N[C@@H](CCC(=O)O)C1=O [Peptide 4-9, XQEg*ASDIWKLaS-NH2 (SEQ ID NO: 16)] (X1-ASD[β3hL]WKL[β3hA]S-NH2) | does not bind with any appreciable binding affinity | > 1000 | –
